Measurements reported in patent US20240239792A1, “MODULATORS OF BCL-2 OR BCL-2/BCL-XL AND USES THEREOF” (APPICINE THERAPEUTICS (HK) LIMITED, priority 2021, published 2024).
pIC50: −log10 of the molar value.

Columns and labels:
BCL-2 = molecular target: T1, BCL-2 (Homo sapiens, UniProt P10415); test: HTRF BCL-2/BAK assay (Cisbio); type: binding; settings: recombinant human Tag1-BCL-2 2 nM, Tag2-BAK 10 nM
T1 construct: purchased Cisbio 63ADK000CB01PEG
Procedure: (§1) Then the pre-mixed anti-Tag1-Eu^3+ and anti-tag2-XL665 were added to the plate and further incubated at room temperature for another 2 hours. The signals ([…]) were read on Envision 2104 instrument. The IC50 for each compound was derived from fitting the signal of 665/615 nM to the increasing compound concentration.
(§2) Using the above assays, the following compounds were tested.

BCL-XL = molecular target: T2, BCL-XL (Homo sapiens, UniProt Q07817); test: HTRF BCL-XL/BAK assay (Cisbio); type: binding; settings: recombinant human Tag1-BCL-XL 2 nM, Tag2-BAK 5 nM
T2 construct: purchased Cisbio 63ADK000CB04PEG
Procedure: as §1, §2

DOHH2 cells = test: CellTiter-Glo cell proliferation assay, DOHH2 cells; type: cell-based; settings: Homo sapiens, DOHH-2, 72 hours
How it was run: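 GI50 derived from CellTiter-Glo luminescent viability signal. Cells grown in DMEM with 10% FBS received a compound dilution series for 72 h (37 °C, 5% CO2).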

T2 sequence (Q07817 whole entry): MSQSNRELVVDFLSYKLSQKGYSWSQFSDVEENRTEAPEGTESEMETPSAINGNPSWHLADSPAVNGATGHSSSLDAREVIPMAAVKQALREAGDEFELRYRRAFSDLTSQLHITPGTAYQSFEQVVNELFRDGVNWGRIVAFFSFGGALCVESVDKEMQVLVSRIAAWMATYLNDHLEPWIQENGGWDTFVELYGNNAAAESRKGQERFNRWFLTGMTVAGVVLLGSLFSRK
T1 sequence (P10415 whole entry): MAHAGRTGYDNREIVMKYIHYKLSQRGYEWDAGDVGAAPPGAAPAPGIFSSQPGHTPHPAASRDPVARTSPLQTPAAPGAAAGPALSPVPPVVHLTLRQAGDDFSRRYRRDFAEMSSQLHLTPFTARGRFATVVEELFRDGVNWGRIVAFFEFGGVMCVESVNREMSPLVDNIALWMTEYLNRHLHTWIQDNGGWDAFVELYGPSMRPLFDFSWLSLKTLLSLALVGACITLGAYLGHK

| Structure (SMILES) | pIC50 (BCL-2) | pIC50 (BCL-XL) | GI50 (DOHH2 cells) |
| --- | --- | --- | --- |
| O=C(NS(=O)(=O)c1ccc(NCC2CCOCC2)c([N+](=O)[O-])c1)c1ccc(N2CCN(C3CCCCc4c3cccc4[N+](=O)[O-])CC2)cc1Oc1cnc2[nH]ccc2c1 (stereo not drawn) [Compound 33, 2-((1H-pyrrolo[2,3-b]pyridin-5-yl)oxy)-N-((3-nitro-4-(((tetrahydro-2H-pyran-4-yl)methyl)amino)phenyl)sulfonyl)-4-(4-(1-nitro-6,7,8,9-tetrahydro-5H-benzo[7]annulen-5-yl)piperazin-1-yl)benzamide] | > 7.70 | 6.70 to 7.70 | < 50 nM |
| CC(=O)Nc1ccc2c(c1)C(N1CCN(c3ccc(C(=O)NS(=O)(=O)c4ccc(NCC5CCOCC5)c([N+](=O)[O-])c4)c(Oc4cnc5[nH]ccc5c4)c3)CC1)CCCC2 (stereo not drawn) [Compound 34, 2-((1H-pyrrolo[2,3-b]pyridin-5-yl)oxy)-4-(4-(3-acetamido-6,7,8,9-tetrahydro-5H-benzo[7]annulen-5-yl)piperazin-1-yl)-N-((3-nitro-4-(((tetrahydro-2H-pyran-4-yl)methyl)amino)phenyl)sulfonyl)benzamide] | > 7.70 | 5.70 to 6.70 | 500 to 5000 nM |
| Cc1ccc(S(=O)(=O)N2CCc3ccccc3C(N3CCN(c4ccc(C(=O)NS(=O)(=O)c5ccc(NCC6CCOCC6)c([N+](=O)[O-])c5)c(Oc5cnc6[nH]ccc6c5)c4)CC3)C2)cc1 (stereo not drawn) [Compound 35, 2-((1H-pyrrolo[2,3-b]pyridin-5-yl)oxy)-N-((3-nitro-4-(((tetrahydro-2H-pyran-4-yl)methyl)amino)phenyl)sulfonyl)-4-(4-(3-tosyl-2,3,4,5-tetrahydro-1H-benzo[d]azepin-1-yl)piperazin-1-yl)benzamide] | 6.70 to 7.70 | 5.70 to 6.70 | 500 to 5000 nM |
| CN1CC2CC1CN2CCNc1ccc(S(=O)(=O)NC(=O)c2ccc(N3CCN(C4CCCCc5c(Cl)cccc54)CC3)cc2Oc2cnc3[nH]ccc3c2)cc1[N+](=O)[O-] (stereo not drawn) [Compound 43, 2-((1H-pyrrolo[2,3-b]pyridin-5-yl)oxy)-4-(4-(1-chloro-6,7,8,9-tetrahydro-5H-benzo[7]annulen-5-yl)piperazin-1-yl)-N-((4-((2-(5-methyl-2,5-diazabicyclo[2.2.1]heptan-2-yl)ethyl)amino)-3-nitrophenyl)sulfonyl)benzamide] | > 7.70 | > 7.70 | 50 to 500 nM |
| CN1CCc2ccccc2C(N2CCN(c3ccc(C(=O)NS(=O)(=O)c4ccc(NCC5CCOCC5)c([N+](=O)[O-])c4)c(Oc4cnc5[nH]ccc5c4)c3)CC2)C1=O (stereo not drawn) [Compound 45, 2-((1H-pyrrolo[2,3-b]pyridin-5-yl)oxy)-4-(4-(3-methyl-2-oxo-2,3,4,5-tetrahydro-1H-benzo[d]azepin-1-yl)piperazin-1-yl)-N-((3-nitro-4-(((tetrahydro-2H-pyran-4-yl)methyl)amino)phenyl)sulfonyl)benzamide] | > 7.70 | 5.70 to 6.70 | 500 to 5000 nM |
| O=C(NS(=O)(=O)c1ccc(NCC2CCOCC2)c([N+](=O)[O-])c1)c1ccc(N2CCN(C3CCCCc4c(-c5cccnc5)cccc43)CC2)cc1Oc1cnc2[nH]ccc2c1 (stereo not drawn) [Compound 49, 2-((1H-pyrrolo[2,3-b]pyridin-5-yl)oxy)-N-((3-nitro-4-(((tetrahydro-2H-pyran-4-yl)methyl)amino)phenyl)sulfonyl)-4-(4-(1-(pyridin-3-yl)-6,7,8,9-tetrahydro-5H-benzo[7]annulen-5-yl)piperazin-1-yl)benzamide] | > 7.70 | 5.70 to 6.70 | 500 to 5000 nM |
| C=C(C)c1cccc2c1CCCCC2N1CCN(c2ccc(C(=O)NS(=O)(=O)c3ccc(NCC4CCOCC4)c([N+](=O)[O-])c3)c(Oc3cnc4[nH]ccc4c3)c2)CC1 (stereo not drawn) [Compound 50, 2-((1H-pyrrolo[2,3-b]pyridin-5-yl)oxy)-N-((3-nitro-4-(((tetrahydro-2H-pyran-4-yl)methyl)amino)phenyl)sulfonyl)-4-(4-(1-(prop-1-en-2-yl)-6,7,8,9-tetrahydro-5H-benzo[7]annulen-5-yl)piperazin-1-yl)benzamide] | > 7.70 | 5.70 to 6.70 | 50 to 500 nM |

Now from value to molecule, other results behind:

| pIC50 (BCL-2) | pIC50 (BCL-XL) | Structure (SMILES) | GI50 (DOHH2 cells) |
| --- | --- | --- | --- |
| > 7.70 | 5.70 to 6.70 | O=C(NS(=O)(=O)c1ccc(NCC2CCOCC2)c([N+](=O)[O-])c1)c1ccc(N2CCN(C3CCCCc4ccc(F)cc43)CC2)cc1Oc1cnc2[nH]ccc2c1 (stereo not drawn) [Compound 37, 2-((1H-pyrrolo[2,3-b]pyridin-5-yl)oxy)-4-(4-(3-fluoro-6,7,8,9-tetrahydro-5H-benzo[7]annulen-5-yl)piperazin-1-yl)-N-((3-nitro-4-(((tetrahydro-2H-pyran-4-yl)methyl)amino)phenyl)sulfonyl)benzamide] | 50 to 500 nM |
| > 7.70 | 5.70 to 6.70 | O=C(NS(=O)(=O)c1ccc(NCC2CCC3(CC2)COC3)c([N+](=O)[O-])c1)c1ccc(N2CCN(C3CCCCc4c(Cl)cccc43)CC2)cc1Oc1cnc2[nH]ccc2c1 (stereo not drawn) [Compound 38, 2-((1H-pyrrolo[2,3-b]pyridin-5-yl)oxy)-N-((4-(((2-oxaspiro[3.5]nonan-7-yl)methyl)amino)-3-nitrophenyl)sulfonyl)-4-(4-(1-chloro-6,7,8,9-tetrahydro-5H-benzo[7]annulen-5-yl)piperazin-1-yl)benzamide] | < 50 nM |
| > 7.70 | 6.70 to 7.70 | CC(=O)N1CCN(CCNc2ccc(S(=O)(=O)NC(=O)c3ccc(N4CCN(C5CCCCc6c(Cl)cccc65)CC4)cc3Oc3cnc4[nH]ccc4c3)cc2[N+](=O)[O-])CC1 (stereo not drawn) [Compound 39, 2-((1H-pyrrolo[2,3-b]pyridin-5-yl)oxy)-N-((4-((2-(4-acetylpiperazin-1-yl)ethyl)amino)-3-nitrophenyl)sulfonyl)-4-(4-(1-chloro-6,7,8,9-tetrahydro-5H-benzo[7]annulen-5-yl)piperazin-1-yl)benzamide] | < 50 nM |
| 6.70 to 7.70 | < 5.70 | O=C(NS(=O)(=O)c1ccc(NCC2CCOCC2)c([N+](=O)[O-])c1)c1ccc(N2CCN([C@@H]3CCCCc4c(O)cccc43)CC2)cc1Oc1cnc2[nH]ccc2c1 [Compound 40, (R)-2-((1H-pyrrolo[2,3-b]pyridin-5-yl)oxy)-4-(4-(1-hydroxy-6,7,8,9-tetrahydro-5H-benzo[7]annulen-5-yl)piperazin-1-yl)-N-((3-nitro-4-(((tetrahydro-2H-pyran-4-yl)methyl)amino)phenyl)sulfonyl)benzamide] | 500 to 5000 nM |
| > 7.70 | > 7.70 | O=C(NS(=O)(=O)c1ccc(NCCN2CC3CC2CO3)c([N+](=O)[O-])c1)c1ccc(N2CCN(C3CCCCc4c(Cl)cccc43)CC2)cc1Oc1cnc2[nH]ccc2c1 (stereo not drawn) [Compound 41, 2-((1H-pyrrolo[2,3-b]pyridin-5-yl)oxy)-N-((4-((2-(2-oxa-5-azabicyclo[2.2.1]heptan-5-yl)ethyl)amino)-3-nitrophenyl)sulfonyl)-4-(4-(1-chloro-6,7,8,9-tetrahydro-5H-benzo[7]annulen-5-yl)piperazin-1-yl)benzamide] | 50 to 500 nM |
| > 7.70 | > 7.70 | O=C(NS(=O)(=O)c1ccc(NCCN2CCC3(CC2)COC3)c([N+](=O)[O-])c1)c1ccc(N2CCN(C3CCCCc4c(Cl)cccc43)CC2)cc1Oc1cnc2[nH]ccc2c1 (stereo not drawn) [Compound 42, 2-((1H-pyrrolo[2,3-b]pyridin-5-yl)oxy)-N-((4-((2-(2-oxa-7-azaspiro[3.5]nonan-7-yl)ethyl)amino)-3-nitrophenyl)sulfonyl)-4-(4-(1-chloro-6,7,8,9-tetrahydro-5H-benzo[7]annulen-5-yl)piperazin-1-yl)benzamide] | 50 to 500 nM |
| > 7.70 | > 7.70 | CN1CC2CC1CC2CNc1ccc(S(=O)(=O)NC(=O)c2ccc(N3CCN(C4CCCCc5c(Cl)cccc54)CC3)cc2Oc2cnc3[nH]ccc3c2)cc1[N+](=O)[O-] (stereo not drawn) [Compound 44, 2-((1H-pyrrolo[2,3-b]pyridin-5-yl)oxy)-4-(4-(1-chloro-6,7,8,9-tetrahydro-5H-benzo[7]annulen-5-yl)piperazin-1-yl)-N-((4-(((2-methyl-2-azabicyclo[2.2.1]heptan-5-yl)methyl)amino)-3-nitrophenyl)sulfonyl)benzamide] | 50 to 500 nM |
| > 7.70 | 6.70 to 7.70 | O=C(NS(=O)(=O)c1ccc(NCC2CC3(COC3)C2)c([N+](=O)[O-])c1)c1ccc(N2CCN(C3CCCCc4c(Cl)cccc43)CC2)cc1Oc1cnc2[nH]ccc2c1 (stereo not drawn) [Compound 46, 2-((1H-pyrrolo[2,3-b]pyridin-5-yl)oxy)-N-((4-(((2-oxaspiro[3.3]heptan-6-yl)methyl)amino)-3-nitrophenyl)sulfonyl)-4-(4-(1-chloro-6,7,8,9-tetrahydro-5H-benzo[7]annulen-5-yl)piperazin-1-yl)benzamide] | < 50 nM |
| 6.70 to 7.70 | < 5.70 | O=C(NS(=O)(=O)c1ccc(NCC2CCOCC2)c([N+](=O)[O-])c1)c1ccc(N2CCN(C3CCCCc4c(C5=CCCC5)cccc43)CC2)cc1Oc1cnc2[nH]ccc2c1 (stereo not drawn) [Compound 47, 2-((1H-pyrrolo[2,3-b]pyridin-5-yl)oxy)-4-(4-(1-(cyclopent-1-en-1-yl)-6,7,8,9-tetrahydro-5H-benzo[7]annulen-5-yl)piperazin-1-yl)-N-((3-nitro-4-(((tetrahydro-2H-pyran-4-yl)methyl)amino)phenyl)sulfonyl)benzamide] | > 5000 nM |
